Measurements as given in patent US5391800A, “Method for inhibition of cell motility by sphingosine-1-phosphate, its derivatives and mimetics and method of synthesizing sphingosine-1-phosphate and its derivatives” (The Biomembrane Institute, priority 1993, dated 1995).
“Also recorded” adds a separate entry of the source.

Key:
B16/F1 melanoma cells [1] = experiment: Chemotactic motility of B16/F1 cells through MATRI-GEL-coated transwell filter; format: cell-based, mouse; conditions: for % motility: percent relative to control, n = 3 or 4, concentration not given
Description: The assays for determining chemotactic cell motility and chemoinvasion can be performed using transwell plates with a polycarbonate membrane filter (pore size 8 μm) (Costar Scientific, Cambridge, Mass.). Aliguots, e.g., 50 μl, of an aqueous solution of MATRI-GEL (Collaborative Research, Bedford, Mass.) containing SPN-1-P or other inhibitor (e.g., 20 μg/ml for chemotactic motility assay or 200 μg/ml for chemoinvasion assay), is added to each well and dried overnight. The filter is then fitted onto the lower chamber plate. The lower chamber can contain conditioned medium (CM) (i.e., medium used for splenic stromal cell culture, and containing motility factor secreted by these cells), e.g., 0.6 ml, with or without SPN-1-P or other inhibitor. To the upper chamber is added, e.g., about 100 μl, of cell suspension (5×10^4 cells/ml for invasion assay, 5×10^5 cells/ml for motility assay), which is then incubated in 5% CO2 at 37° C. for 70-72 hours (invasion assay) or 20 hours (motility assay). After incubation, cells remaining in the upper chamber are wiped off with a cotton swab, and cells which had migrated to the lower chamber side of the filter are fixed in methanol for 30 seconds and stained with 0.05% toluidine blue. The filter is removed, the stain is solubilized in 10% acetic acid (e.g., 0.1 ml for invasion assay, 0.5 ml for motility assay), and color intensity (optical density) is quantitated by ELISA reading at 630 nm. Using SPN-1-P, a linear relationship was observed between cell number and toluidine blue optical density (FIG. 7).
Assays were performed using transwell plates with polycarbonate membrane filters (pore size 8 μm) (Costar Scientific, Cambridge, Mass.). 50 μl aliguots of an aqueous solution of MATRI-GEL (Collaborative Research, Bedford, Mass.) containing 20 μg/ml (for chemotactic motility assay) or 200 μg/ml (for chemoinvasion assay) were added to each well and dried overnight. The filter was fitted onto the lower chamber plate. The lower chamber contained 0.6 ml conditioned medium (CM) (i.e., medium used for splenic stromal cell culture, and containing motility factor secreted by these cells) with or without the suspected inhibitor. To the upper chamber was added 100 μl of cell suspension (5×10^4 cells/ml for invasion assay, 5×10^5 cells/ml for motility assay), which was then incubated in 5% CO2 at 37° C. for 70-72 hours (invasion assay) or 20 hours (motility assay). After incubation, cells remaining in the upper chamber were wiped off with a cotton swab, and cells which had migrated to the lower chamber side of the filter were fixed in methanol for 30 seconds and stained with 0.05% toluidine blue. The filter was removed, the stain was solubilized in 10% acetic acid (0.1 ml for invasion assay, 0.5 ml for motility assay), and color intensity (optical density) was quantitated by ELISA reading at 630 nm. A linear relationship was observed between cell number and toluidine blue optical density (FIG. 7.).
In experiments with different quantities of MATRI-GEL, cell migration through transwell filter was maximal with 1 μg/well was applied, and when CM was used (FIG. 8). Therefore, chemotactic cell motility, as affected by various SPN derivatives, was assayed under these conditions.
*Mean ± S.E. of percent relative to control (n = 4). Actual O.D. value
and 0.147 (HT1080). 6 × 10^4 cells were placed on a transwell
filter coated with 1.0 μg MATRIGEL in the upper chamber, and cultured
for 18 hours in the presence of CM and SPN1-P in the lower chamber.

B16/F10 melanoma cells = experiment: Phagokinetic activity of B16/F10 melanoma cells on gold sol-coated plates; format: cell-based, mouse; conditions: for Cleared area: mean ± S.D., n > 50; for Area cleared by B16/F10 tumor cells: SPN-1-P at 1.0 or 0.1 μM
Description: Phagokinetic activity is measured by the ability of cells to ingest foreign particles while moving. […] A uniform coating of gold particles is prepared on glass coverslips precoated with bovine serum albumin, and coverslips are rinsed repeatedly to remove non-adhering or loosely-adhering gold particles. Freshly-prepared neutrophils or tumor cells detached from culture are placed in a Petri dish containing the gold sol-coated plate, and incubated for about 2 hours (for human neutrophils) or about 18 hours (for tumor cells). The coverslips are fixed for 1 hour in a 4% formaldehyde solution in phosphate-buffered saline (PBS) and mounted on microscope slides. The phagokinetic tracks are observed on a television connected to a light microscope (Nikon, Tokyo, Japan). Tracks on the television are transferred to translucent sheets, which are then photocopied. Phagokinetic activity is quantitated by cutting and weighing the swept area in the copy.
A uniform coating of gold particles was prepared on glass coverslips precoated with bovine serum albumin, and the coverslips were rinsed repeatedly to remove non-adhering or loosely-adhering gold particles. Freshly-prepared neutrophils or tumor cells detached from culture were placed in a Petri dish containing the gold sol-coated plate, and incubated for 2 hours (for human neutrophils) or 18 hours (for tumor cells). The coverslips were fixed for 1 hour in 4% formaldehyde solution in phosphate-buffered saline (PBS) and mounted on microscope slides. The phagokinetic tracks were observed on a television connected to a light microscope (Nikon, Tokyo, Japan). Tracks on the television were transferred to translucent sheets, which were then photocopied. Phagokinetic activity was quantitated by cutting and weighing the swept area in the copy.

B16/F1 cells = experiment: Uptake and metabolic conversion of 3H-SPN and 14C-TMS in B16/F1 cells; format: in vitro ADME, mouse; conditions: for Incorporation into B16/F1 cells: 3H-labeled SPN, 14C-labeled TMS; for Metabolic conversion: B16/F1 cells
Text: FIGS. 12A and 12B depict the time-course uptake of ^3 H-SPN (FIG. 12A) and ^14 C-TMS (FIG. 12B) by B16/F1 cells. The ordinate represents % radioactivity taken up by B16/F1 cells and the abscissa represents time in hours.
FIGS. 13A-13C depict the time-course changes in labeling of various SPN derivatives after addition of ^3 H-SPN to B16/F1 cells:
FIG. 13A: thin-layer chromatography (TLC) of lipids separated from Folch's lower phase;
FIG. 13B: TLC of lipids separated from Folch's upper phase followed by incubation with ^14 C-TMS and extraction;
FIG. 13C: TLC of lipids separated from Folch's upper phase.
Lane 1, 0 minute. Lane 2, 10 minutes. Lane 3, 30 minutes. Lane 4, 1 hour. Lane 5, 2 hours. Lane 6, 4 hours. Lane 7, 20 hours. CER represents ceramide; CMH represents ceramide monohexoside; PE represents phosphatidyl-ethanolamine; SM represents sphingomyelin; TMS represents N,N,N-trimethylsphingosine; SPN represents sphingosine; SPN-1-P represents sphingosine-1-phosphate; and ORG represents the origin.
In addition, the uptake and metabolic conversion of SPN vs. TMS was investigated. […] Rapid conversion of SPN into sphingosine-1-phosphate is clearly indicated by the appearance of bands corresponding to SPN-1-P prior to conversion into Cer. The SPN-1-P peak appeared after 10 minutes incubation, whereas the Cer peak appeared after 1 hour incubation.

B16/F1 melanoma cells [2] = experiment: Growth of B16/F1 melanoma cells (cell count after 48 hr); format: cell-based, mouse; conditions: for Growth-inhibitory effect / activity at 10 µM: 10 μM; for Growth-inhibitory effect: B16/F1 cells
Description: *Mean ± S.E. (n = 3). For controls (defined as 100%), cell number was
10^5 cells were seeded and
cultured on a 35 mm plastic dish in Dulbecco's modified Eagle's medium
containing 2% fetal bovine serum in the presence or absence of SPN
derivatives. 48 hr later, cells were counted.

[3] = Mus musculus, B16-F10, 1.0 μM, 18 hours, read-out: % of control (CM+) value
[4] = 3H-SPN, in the presence of D-PDMP
[5] = Mus musculus, B16-F1, 48 hr, control = 100%, mean ± S.E., n = 3

`CCCCCCCCCCCCC/C=C/[C@@H](O)[C@@H](N)CO` [SPN, sphingosine] was tested, and the inhibition at 10 µM (B16/F1 melanoma cells [1]; Mus musculus, B16-F1, 20 h, read-out: Motility blocked) was 100%, the “Cleared area less control (CM-) value” (B16/F10 melanoma cells; 1.0 μM, 18 hours) was 0.4 × 10^3 μm^2 and the Cleared area (B16/F10 melanoma cells; 1.0 μM, 18 hours) was 2.5 ± 1.0 × 10^3 μm^2. For the same compound, the activity at 1 µM (B16/F10 melanoma cells; [3]) was 8%, the “Area cleared by B16/F10 tumor cells” value (B16/F10 melanoma cells) was “reduced the area cleared by tumor cells” and the “Appearance of Cer peak after incubation with SPN” value (B16/F1 cells; [4]) was 1 h. The “Appearance of SPN-1-P peak after incubation with SPN” value (B16/F1 cells; [4]) was 10 min, the “Incorporation into B16/F1 cells” value (B16/F1 cells) was “rapidly incorporated” and the “Metabolic conversion” value (B16/F1 cells) was “rapidly converted into SPN-1-P and ceramide; also recorded: can be converted to SPN-1-P”. For the same compound, the “Growth-inhibitory effect” value (B16/F1 melanoma cells [2]) was “moderate growth-inhibitory effect”, the activity at 1 µM (B16/F1 melanoma cells [2]; [5]) was 101 ± 1% and the activity at 5 µM (B16/F1 melanoma cells [2]; [5]) was 87 ± 10%. The activity at 10 µM (B16/F1 melanoma cells [2]; [5]) was 78 ± 4%.

`CCCCCCCCCCCCC/C=C/[C@@H](O)[C@@H](N)COP(=O)(O)O` [SPN-1-P, sphingosine-1-phosphate] was tested, and the “Inhibition of B16/F1 motility, comparison” value (B16/F1 melanoma cells [1]; FIG. 9, 20 hour) was “inhibited most strongly; also recorded: same dose-dependent inhibitory effect on cell motility”, the inhibition at 0.1 µM (B16/F1 melanoma cells [1]; Mus musculus, B16-F1, 10^-7 M, 20 hour, CM, lower chamber, read-out: Motility blocked) was 100% and the inhibition at 0.01 µM (B16/F1 melanoma cells [1]; Mus musculus, B16-F1, 10^-8 M, 20 hour, CM, lower chamber, read-out: Motility blocked) was 90%. It also gave an activity at 0.001 µM (B16/F1 melanoma cells [1]; Mus musculus, B16-F1, F1, 0.001 μM, 18 hours, relative to control, mean ± S.E., n = 4) of 82 ± 44%, an activity at 0.01 µM (B16/F1 melanoma cells [1]; Mus musculus, B16-F1, F1, 0.01 μM, 18 hours, relative to control, mean ± S.E., n = 4) of 12 ± 7% and an activity at 0.1 µM (B16/F1 melanoma cells [1]; Mus musculus, B16-F1, F1, 0.1 μM, 18 hours, relative to control, mean ± S.E., n = 4) of 6 ± 2%. The activity at 1 µM (B16/F1 melanoma cells [1]; Mus musculus, B16-F1, F1, 1.0 μM, 18 hours, relative to control, mean ± S.E., n = 4) was 8 ± 2%, the “Susceptibility of B16/F1 cells (chemotactic motility)” value (B16/F1 melanoma cells [1]; Table V, in words) was “high” and the “Inhibition of cell motility compared with other sphingolipids” value (B16/F1 melanoma cells [1]; comparison with other sphingolipids) was “much stronger than that for SPN, N,N-dimethylsphingosine (DMS), or N,N,N-trimethylsphingosine (TMS); also recorded: unexpectedly superior inhibition”. For the same compound, the “% motility” value (B16/F1 melanoma cells [1]; mean ± S.E.) was 5 ± 1%, the “Cleared area less control (CM-) value” (B16/F10 melanoma cells; 0.0001 μM, 18 hours) was 3.9 × 10^3 μm^2 and the Cleared area (B16/F10 melanoma cells; 0.0001 μM, 18 hours) was 6.0 ± 2.7 × 10^3 μm^2. The “Cleared area less control (CM-) value” (B16/F10 melanoma cells; 0.01 μM, 18 hours) was 2.0 × 10^3 μm^2, the Cleared area (B16/F10 melanoma cells; 0.01 μM, 18 hours) was 4.1 ± 1.4 × 10^3 μm^2 and the “Cleared area less control (CM-) value” (B16/F10 melanoma cells; 0.1 μM, 18 hours) was 1.3 × 10^3 μm^2. For the same compound, the Cleared area (B16/F10 melanoma cells; 0.1 μM, 18 hours) was 3.4 ± 1.3 × 10^3 μm^2, the “Cleared area less control (CM-) value” (B16/F10 melanoma cells; 1.0 μM, 18 hours) was 0.3 × 10^3 μm^2 and the Cleared area (B16/F10 melanoma cells; 1.0 μM, 18 hours) was 2.4 ± 1.1 × 10^3 μm^2. The activity at 0.0001 µM (B16/F10 melanoma cells; Mus musculus, B16-F10, 0.0001 μM, 18 hours, read-out: % of control (CM+) value) was 81%, the activity at 0.01 µM (B16/F10 melanoma cells; Mus musculus, B16-F10, 0.01 μM, 18 hours, read-out: % of control (CM+) value) was 42% and the activity at 0.1 µM (B16/F10 melanoma cells; Mus musculus, B16-F10, 0.1 μM, 18 hours, read-out: % of control (CM+) value) was 27%. For the same compound, the activity at 1 µM (B16/F10 melanoma cells; [3]) was 6%, the “Area cleared by B16/F10 tumor cells” value (B16/F10 melanoma cells) was “greatly reduced” and the “Growth-inhibitory effect” value (B16/F1 melanoma cells [2]) was “no growth-inhibitory effect”. For the same compound, the activity at 0.01 µM (B16/F1 melanoma cells [2]; Mus musculus, B16-F1, 0.01 μM, 48 hr, control = 100%, mean ± S.E., n = 3) was 103 ± 10%, the activity at 0.1 µM (B16/F1 melanoma cells [2]; Mus musculus, B16-F1, 0.1 μM, 48 hr, control = 100%, mean ± S.E., n = 3) was 97 ± 5% and the activity at 1 µM (B16/F1 melanoma cells [2]; [5]) was 105 ± 10%. For the same compound, the activity at 5 µM (B16/F1 melanoma cells [2]; [5]) was 96 ± 2% and the activity at 10 µM (B16/F1 melanoma cells [2]; [5]) was 87 ± 10%.

`CCCCCCCCCCCCC/C=C/[C@@H](O)[C@H](CO)[N+](C)(C)C` [TMS, N,N,N-trimethylsphingosine] was tested, and the “Inhibition of motility” value (B16/F1 melanoma cells [1]; 10^-5 M, 20 hour) was “only weak inhibition of motility”, the “% motility” value (B16/F1 melanoma cells [1]; mean ± S.E.) was 100 ± 19% and the “Cleared area less control (CM-) value” (B16/F10 melanoma cells; 1.0 μM, 18 hours) was 3.5 × 10^3 μm^2. The Cleared area (B16/F10 melanoma cells; 1.0 μM, 18 hours) was 5.6 ± 2.7 × 10^3 μm^2, the activity at 1 µM (B16/F10 melanoma cells; [3]) was 73% and the “Area cleared by B16/F10 tumor cells” value (B16/F10 melanoma cells) was “reduced the area cleared by tumor cells”. The “Incorporation into B16/F1 cells” value (B16/F1 cells) was “rapidly incorporated”, the “Metabolic conversion” value (B16/F1 cells) was “unchanged regardless of incubation time; also recorded: cannot be phosphorylated” and the “Growth-inhibitory effect” value (B16/F1 melanoma cells [2]) was “strong”. For the same compound, the activity at 1 µM (B16/F1 melanoma cells [2]; [5]) was 88 ± 7%, the activity at 5 µM (B16/F1 melanoma cells [2]; [5]) was 77 ± 8% and the activity at 10 µM (B16/F1 melanoma cells [2]; [5]) was 11 ± 1%.
